Data on eleven compounds can be found in patent US20020028809A1 (SUNTORY LIMITED, priority 1999, published 2002).

The target in test [1] is T1, α4β2 subtype of nicotinic acetylcholine receptors (Rattus norvegicus, UniProt P09483+P12390).
T1 construct: examined using rat brain membrane obtained from whole homogenized brain; from tissue; host or cells: whole brain of Fischer-344 male rats, membrane pellet
Description: Binding assays at α4β2 subtype of nicotinic acetylcholine receptors ([3H]-cytisine, rat brain membrane). The source says: (§1) Methods for evaluating binding capabilities of the compounds at nicotinic acetylcholine receptors are different by subtypes of receptors. Binding capabilities of the compounds at α4β2 nicotinic acetylcholine receptors are examined using rat brain membrane obtained from whole homogenized brain, and determining the inhibiting rate of the compounds against [^3H]-cytisine binding to said brain membrane. Furthermore, the binding capabilities of the compounds at α1β1γδ nicotinic acetylcholine receptors are examined using homogenized rat muscle, and determining the inhibiting rate of the compounds against [^3H]-α-bungarotoxin binding to said muscle homogenate.
Binding assays at α4β2 Subtype of Nicotinic Acetylcholine Receptors
(1) Preparation of Rat Brain Membrane Containing α4β2 Subtype of Nicotinic Acetylcholine Receptors
Rats were housed in the breeding cage controlled of the room temperature at 23±1° C., and the humidity of 55±5% for 1 to 4 weeks. Rats (3 to 4 rats per a cage) were housed with lights on for 12 hours daily (from 7:00 to 19:00), and allowed free access to food and water.
Preparation of rat brain membrane containing α4β2 subtype of nicotinic acetylcholine receptors was performed as follow. That is, rat brains were isolated just after sacrificed by decapitation, washed with ice-cooled saline solution and then frozen at −80° C. with liquid nitrogen and stored till using. After thawing the frozen brain, the brain was homogenized in 10 volumes of ice-cooled buffer solution (50 mM of Tris-HCl, 120 mM of NaCl, 5 mM of KCl, 1 mM of MgCl2, 2mM of CaCl2; pH 7.4; 4° C.) using homogenizer (HG30, Hitachi Kohki Ltd.) for 30 seconds, and the homogenate were centrifuged under 1,000×G for 10 minutes at 4° C. The resulting supernatant was separated and the pellet was homogenized again with half volume of aforementioned prior buffer solution and centrifuged under the same conditions. Combined supernatant was further centrifuged under 40,000×G for 20 minutes at 4° C. The pellet was suspended in buffer solution and used for binding assays at receptors.
(2) Experiments of α4β2 Subtype of Nicotinic Acetylcholine Receptors Binding
Suspensions of membrane pellets containing 400-600 μg of protein were added to test tubes containing test compounds and [^3H]-cytisine (2 nM) in a final volume of 200 μl and incubated for 75 minutes in ice-cooled bath. The samples were isolated by vacuum filtration onto Whatman GF/B filters, which were prerinsed with 0.5% polyethylenimine just prior to sample filtration, using Brandel multi manifold cell harvester. The filters were rapidly washed with buffer solution (3×1 ml). The filters were counted in 3 ml of clearsol I (Nacalai Tesque Inc.).
Analyses of the experimental results were conducted using the Accufit Competition Program (Beckman Ltd.).

In test [2] the target is T2, human α4β2 subtype of nicotinic acetylcholine receptors (Homo sapiens, UniProt P17787+P43681).
T2 construct: expressed in transfected cells; host or cells: Xenopus laevis oocytes injected with 50 ng each of α4 and β2 cRNA (pSP64 polyA vector)
In words: Agonist activities at human α4β2 subtype of nicotinic acetylcholine receptors expressed in Xenopus oocytes (membrane potential holding method). It is filed as cell-based. As to conditions: for Emax at 100 µM: read-out: Agonist activity: control % by response at 100 μM of the test compound. The method, then:
Agonist effect in human α4β2 subtype of nicotinic acetylcholine receptors are examined by using human nicotinic acetylcholine receptors prepared in oocytes of Xenopus laevis, which is injected with cRNA from the corresponding cloning cDNA of human α4 and β2 subunits of nicotinic acetylcholine receptors, and to measure the expression of electric response by adding the test compounds to perfusion solution by means of membrane potential holding method.
Agonist Activities at Human α4β2 Subtype of Nicotinic Acetylcholine Receptors
(1) Preparation of cRNA of Human α4β2 Subtype of Nicotinic Acetylcholine Receptors
Obtained hnACh-R α4 cDNA and hnACh-R β2 cDNA were inserted to the cRNA expression vector (pSP64 polyA) having SP6 RNA promoter to construct hnACh-R α4/pSP64 polyA and hnACh-R β2/pSP64 polyA, respectively. After cutting from expression vector by restriction enzyme (EcoRI), transcription was performed by affecting SP6 RNA polymerase in the presence of cap analogues to obtain hnACh-R α4 cRNA and hnACh-R β2 cRNA, respectively.
(2) Expression of Human α4β2 Subtype Nicotinic Acetylcholine Receptors in Xenopus oocytes
Oocytes were purchased from Kitanihonseibutsukyohzai Co., Ltd., which were already enucleated from Xenopus laevis, and used in this experiment.
The oocytes were treated with collagenase (Sigma type I; 1 mg/ml) in calcium-free modified Birth's solution (88 mM of NaCl, 1 mM of KCl, 2.4 mM of NaHCO3, 0.82 mM of MgSO4, 15 mM of HEPES, pH 7.6) under gently stirring at room temperature for 90 minutes, and washed out the enzyme from the tissue. Then, oocytes were separated from ovarian follicle by tweezers, and isolated oocytes were placed in antibiotics containing modified Birth's solution (88 mM of NaCl, 1 mM of KCl, 2.4 mM of NaHCO3, 0.82 mM of MgSO4, 15 mM of HEPES, pH 7.6, and 0.1 v/v% of mixture solution containing of penicillin and streptomycin for incubation; Sigma Co.). […] In oocytes, heterogeneous quintuple [(α4)2(β2)3] was composed by translation of injected cRNAs, and ion channel receptors were constructed on cell membrane.
(3) Agonist Activities at Human α4β2 Subtype of Nicotinic Acetylcholine Receptors
Recordings of response at human α4β2 subtype of nicotinic acetylcholine receptors by means of membrane potential holding method were performed as follow. […] Test compounds were added to the perfusion solution, and recorded the peak strength of induced inward current. In order to normalize the response of test compounds, the response with acetylcholine (Ach) were recorded before and after application of the test compounds. Generally in the oocytes just after isolated, the response of intrinsic muscarinic acetylcholine receptors, which is inward electric current caused by activation of calcium dependence chloride ion channels with increase of the intracellular calcium concentration by stimulation of receptors, is observed. […] Therefore, the responses observed in oocytes with injection of hnACh-R α4 cRNA and hnACh-R β2 cRNA, i.e., the inward current induced by the intracellular influx of sodium ion according to the stimulation of receptors, would be the freshly observed responses of human α4β2 subtype nicotinic acetylcholine receptors.

Test [3] addresses T3, α1β1γδ subtype of nicotinic acetylcholine receptors (Rattus norvegicus, UniProt P18916+P25108+P25109+P25110).
T3 construct: Native receptor, no construct: "Triton X100 (2% w/v) was added
Description: Binding assays at α1β1γδ subtype of nicotinic acetylcholine receptors ([3H]-α-bungarotoxin, rat muscle extract). The note with it: for remaining activity at 100 µM / remaining activity at 1000 µM: read-out: control % of [3H]-α-Bgt binding.
From the text: as §1
Binding Assays at α1β1γδ Subtype of Nicotinic Acetylcholine Receptors
Affinity of the compounds of the present invention to α1βγδ subtype of nicotinic acetylcholine receptors was measured by the following method, which was modified method described by Garcha H. S., Thomas P., Spivak C.
(1) Preparation of Rat Skeletal Muscles Containing α1β1γδ Subtype of Nicotinic Acetylcholine Receptors
The substantially same animals described in the Biological Experiment 1 were used.
Isolation of α1β1γδ subtype of nicotinic acetylcholine receptors was performed as follow. That is, rat posterior skeletal muscles were isolated just after sacrificed by decapitation, washed with ice-cooled saline solution and then frozen at −80° C. with liquid nitrogen and stored till using. After thawing the frozen muscles, tissue was homogenized (40% w/v) with buffer solution [2.5 mM of sodium phosphate buffer (pH:7.2), 90 mM of NaCl, 2 mM of KCl, 1 mM of EDTA, 2 mM of benzamidine, 0.1 mM of benzethonium chloride, […], 0.01% of sodium azide] in Waring blender (Waring blender 34BL97; WARING PRODUCTS DIVISION DYNAMICS CORPORATION OF AMERICA) for 60 seconds. The homogenate were centrifuged under 20,000×G for 60 minutes at 4° C. The supernatant was separated and the resulting pellet was added to the same buffer (1.5 ml/g wet weight), and homogenized under the same conditions. Triton X100 (2% w/v) was added and the mixture was stirred for 3 hours at 4° C. The centrifugation at 100,000×G for 60 minutes at 4° C. yielded the rat muscle extract as supernatant. This was stored at 4° C. for up to 4 weeks, and used for binding assays at receptors.
(2) Experiments of α1β1γδSubtype of Nicotinic Acetylcholine Receptors Binding
Receptors binding experiments were performed as follow. That is, the extract of rat muscle containing 600-900 μg of protein was added to test tubes containing test compounds and incubated for 15 minutes at 37° C. Then, to this mixture was added 1 nM of [^3H]-α-bungarotoxin (α-Bgt) and further incubated for 2 hours. The samples were isolated by vacuum filtration onto Whatman GF/B filters, which were prerinsed with 0.5% polyethylenimine just prior to sample filtration, using Brandel multi manifold cell harvester. The filters were rapidly rinsed with washing solution (10 mM of KH2PO4, 150 mM of NaCl, pH 7.2, room temperature) (5×1 ml). The filters were counted in 3 ml of clearsol I (Nacalai Tesque Inc.). Determination of nonspecific binding was incubated in the presence of 1 μM α-Bgt.
In the receptor binding experiments, said buffer solution was added for adjusting the final concentration of BSA to be 0.05%.
Analyses of the experimental results were conducted by the same way as described in the Biological Experiment 1.

Structures are written as SMILES.

T3 sequence (P25108 21-457): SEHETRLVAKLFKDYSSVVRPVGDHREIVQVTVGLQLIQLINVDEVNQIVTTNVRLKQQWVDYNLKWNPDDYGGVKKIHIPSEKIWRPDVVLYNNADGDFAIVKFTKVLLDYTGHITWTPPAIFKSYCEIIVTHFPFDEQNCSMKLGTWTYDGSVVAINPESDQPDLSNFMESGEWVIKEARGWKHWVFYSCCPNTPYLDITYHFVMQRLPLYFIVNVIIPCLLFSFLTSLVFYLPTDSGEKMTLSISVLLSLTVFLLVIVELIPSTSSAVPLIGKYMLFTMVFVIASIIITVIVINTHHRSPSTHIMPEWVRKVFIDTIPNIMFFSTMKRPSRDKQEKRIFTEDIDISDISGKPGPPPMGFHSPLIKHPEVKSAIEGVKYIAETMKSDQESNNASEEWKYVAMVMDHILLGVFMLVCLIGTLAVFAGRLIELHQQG
T3 sequence (P25110 22-517): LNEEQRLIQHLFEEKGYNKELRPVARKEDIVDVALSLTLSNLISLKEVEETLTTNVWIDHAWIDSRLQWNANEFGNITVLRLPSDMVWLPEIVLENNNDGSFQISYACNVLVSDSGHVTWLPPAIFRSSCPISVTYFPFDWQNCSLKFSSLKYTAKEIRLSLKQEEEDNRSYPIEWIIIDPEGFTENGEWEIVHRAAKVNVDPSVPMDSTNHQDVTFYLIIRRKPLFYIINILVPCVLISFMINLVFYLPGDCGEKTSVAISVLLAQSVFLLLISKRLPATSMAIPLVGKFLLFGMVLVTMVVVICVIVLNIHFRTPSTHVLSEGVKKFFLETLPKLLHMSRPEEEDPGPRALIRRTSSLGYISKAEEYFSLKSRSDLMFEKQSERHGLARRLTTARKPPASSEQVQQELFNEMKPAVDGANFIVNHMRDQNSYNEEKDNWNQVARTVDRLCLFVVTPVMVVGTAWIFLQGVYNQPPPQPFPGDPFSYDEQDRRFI
T3 sequence (P25109 24-501): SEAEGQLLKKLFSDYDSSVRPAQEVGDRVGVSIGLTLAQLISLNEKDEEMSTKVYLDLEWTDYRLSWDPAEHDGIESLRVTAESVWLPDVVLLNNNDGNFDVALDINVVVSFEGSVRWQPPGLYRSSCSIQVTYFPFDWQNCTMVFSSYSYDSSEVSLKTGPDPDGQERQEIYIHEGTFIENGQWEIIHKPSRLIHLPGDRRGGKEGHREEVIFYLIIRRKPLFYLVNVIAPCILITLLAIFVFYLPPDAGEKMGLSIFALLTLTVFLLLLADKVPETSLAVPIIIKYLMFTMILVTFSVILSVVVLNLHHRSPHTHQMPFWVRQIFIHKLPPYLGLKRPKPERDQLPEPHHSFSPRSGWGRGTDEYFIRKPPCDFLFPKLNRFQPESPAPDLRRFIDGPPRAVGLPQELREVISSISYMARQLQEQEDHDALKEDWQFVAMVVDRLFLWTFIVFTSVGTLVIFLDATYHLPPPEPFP
T1 sequence (P09483 31-630): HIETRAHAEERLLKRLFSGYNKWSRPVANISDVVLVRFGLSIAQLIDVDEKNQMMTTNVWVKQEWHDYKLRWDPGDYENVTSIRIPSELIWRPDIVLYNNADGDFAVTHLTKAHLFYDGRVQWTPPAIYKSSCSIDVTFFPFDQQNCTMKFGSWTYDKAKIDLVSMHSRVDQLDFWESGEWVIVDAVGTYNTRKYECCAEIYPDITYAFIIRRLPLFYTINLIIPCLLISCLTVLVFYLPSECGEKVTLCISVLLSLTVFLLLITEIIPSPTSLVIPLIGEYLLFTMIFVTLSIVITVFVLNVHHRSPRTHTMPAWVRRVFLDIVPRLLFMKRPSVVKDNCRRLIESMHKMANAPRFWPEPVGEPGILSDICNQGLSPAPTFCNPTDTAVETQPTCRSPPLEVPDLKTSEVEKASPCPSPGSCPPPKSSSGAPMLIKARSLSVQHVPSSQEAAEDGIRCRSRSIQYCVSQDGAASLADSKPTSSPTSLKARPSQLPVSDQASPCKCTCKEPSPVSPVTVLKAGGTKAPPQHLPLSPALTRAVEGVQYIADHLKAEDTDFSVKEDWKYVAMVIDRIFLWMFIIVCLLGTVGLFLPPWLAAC
T1 sequence (P12390 25-500): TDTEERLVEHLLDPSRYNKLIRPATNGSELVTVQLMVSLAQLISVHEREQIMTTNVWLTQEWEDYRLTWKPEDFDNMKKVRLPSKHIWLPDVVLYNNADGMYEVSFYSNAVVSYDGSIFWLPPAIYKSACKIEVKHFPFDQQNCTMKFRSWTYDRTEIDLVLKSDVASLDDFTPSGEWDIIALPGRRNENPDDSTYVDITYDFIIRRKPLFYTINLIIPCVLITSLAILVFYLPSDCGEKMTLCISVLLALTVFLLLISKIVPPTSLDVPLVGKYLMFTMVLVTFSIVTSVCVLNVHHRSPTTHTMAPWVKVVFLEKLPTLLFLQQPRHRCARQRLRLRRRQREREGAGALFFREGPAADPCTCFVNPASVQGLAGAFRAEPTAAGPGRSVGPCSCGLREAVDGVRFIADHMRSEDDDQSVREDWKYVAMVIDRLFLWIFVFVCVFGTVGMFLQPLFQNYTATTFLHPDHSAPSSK
T2 sequence (P43681 29-627 limits assumed): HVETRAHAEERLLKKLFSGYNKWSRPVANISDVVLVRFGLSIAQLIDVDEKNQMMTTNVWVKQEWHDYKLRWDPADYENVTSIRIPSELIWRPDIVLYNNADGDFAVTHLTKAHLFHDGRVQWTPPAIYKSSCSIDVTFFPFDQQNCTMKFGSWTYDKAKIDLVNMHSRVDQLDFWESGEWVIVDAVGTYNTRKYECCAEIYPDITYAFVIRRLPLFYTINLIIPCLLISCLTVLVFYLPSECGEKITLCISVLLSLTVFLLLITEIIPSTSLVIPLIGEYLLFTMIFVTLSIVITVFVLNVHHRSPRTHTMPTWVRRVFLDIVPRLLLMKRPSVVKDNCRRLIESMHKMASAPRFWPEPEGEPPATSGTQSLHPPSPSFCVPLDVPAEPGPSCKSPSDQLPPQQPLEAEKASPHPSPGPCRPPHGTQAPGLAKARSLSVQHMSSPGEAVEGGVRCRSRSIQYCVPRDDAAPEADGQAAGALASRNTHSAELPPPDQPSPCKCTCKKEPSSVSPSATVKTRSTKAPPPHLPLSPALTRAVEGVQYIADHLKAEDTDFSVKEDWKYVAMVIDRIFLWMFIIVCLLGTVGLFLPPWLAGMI
T2 sequence (P17787 26-502): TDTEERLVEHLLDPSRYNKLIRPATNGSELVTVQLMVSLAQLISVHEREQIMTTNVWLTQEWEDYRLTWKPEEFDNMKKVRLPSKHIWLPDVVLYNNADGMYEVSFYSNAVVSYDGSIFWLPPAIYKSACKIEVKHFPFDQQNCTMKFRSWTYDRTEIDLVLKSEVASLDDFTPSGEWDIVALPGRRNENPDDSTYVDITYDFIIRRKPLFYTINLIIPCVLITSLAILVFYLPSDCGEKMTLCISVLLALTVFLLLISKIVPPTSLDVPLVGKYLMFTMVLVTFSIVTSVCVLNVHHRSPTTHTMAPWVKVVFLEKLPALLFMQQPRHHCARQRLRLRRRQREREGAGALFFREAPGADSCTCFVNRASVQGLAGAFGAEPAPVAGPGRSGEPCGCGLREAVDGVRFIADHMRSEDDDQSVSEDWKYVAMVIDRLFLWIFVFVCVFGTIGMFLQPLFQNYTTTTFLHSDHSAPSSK

With `N=c1sccn1Cc1cccnc1` [Compound 1, 2-imino-3-(3-pyridyl)methyl-2,3-dihydrothiazole], the Ki (usually a dissociation constant, usually derived from enzyme kinetics or from competition with a known ligand) in test [1] is 4.84 nM; in test [3], 4.9 µM. Moreover, in test [2], the Emax at 100 µM worked out at 20%.
`N=c1ccc(Cl)nn1Cc1ccc(Cl)nc1` [Compound 6, 6-chloro-2-(6-chloro-3-pyridyl)methyl-3-imino-2,3-dihydropyridazine] showed a Ki in test [1] of 15 nM. Also, the midpoint of the response in test [2], the EC50, lay at 86 µM. Besides, in test [3], the remaining activity at 100 µM was 44% and the remaining activity at 1000 µM came to 15%.
For `N=C1OCCCN1Cc1ccc(Cl)nc1` [Compound 16, 3-(6-chloro-3-pyridyl)methyl-2-imino-3,4,5,6-tetrahydro-2H-1,3-oxazine], in that order: 0.65 nM, 1.5 µM, 14% and -2%.
Take `Cc1csc(=N)n1Cc1ccc(Br)nc1` [Compound 19, 3-(6-bromo-3-pyridyl)methyl-2-imino-4-methyl-2,3-dihydrothiazole]: the Ki stood at 10.5 nM in test [1] and 11.7 µM in test [3]. In test [2], the Emax at 100 µM stood at 3%.
With `N=C1OCCN1Cc1ccc(Cl)nc1` [Compound 28, 3-(6-chloro-3-pyridyl)methyl-2-iminooxazolidine], the Ki in test [1] was found to be 2.77 nM; in test [3], 39.8 µM. In addition, in test [2], the EC50 (in general, the concentration that produces a half-maximal response) is 15.5 µM.
The corresponding values for `NC1=NCCCN1Cc1ccc(Cl)nc1` [Compound 29, 1-(6-Chloro-3-pyridyl)methyl-2-imino-1,2,3,4,5,6-hexahydropyrimidine] are 0.25 nM, 7.02 µM and 0.5 µM.
`Nc1nccn1Cc1cnc(Cl)s1` [Compound 50, 2-amino-1-(2-chloro-5-thiazolyl)methylimidazole]: the Ki is 27.1 nM in test [1] and 818 µM in test [3]. Also, the EC50 in test [2] came to 92.4 µM.
As for `Cc1ccc(Cn2ccnc2N)cn1` [Compound 56, 2-amino-i-(6-methyl-3-pyridyl)methylimidazole], the Ki in test [1] worked out at 165 nM; in test [3], 545 µM. In test [2], the Emax at 100 µM was found to be 11%.
For the compound `N=c1sccn1Cc1ccc(Cl)cc1` [Compound 57, 3-(4-chlorobenzyl)-2-imino-2,3-dihydrothiazole], the Ki came to 11.9 nM in test [1] and 13 µM in test [3]. Moreover, the Emax at 100 µM in test [2] amounted to 23%.
The corresponding values for `Nc1nccn1Cc1c[nH]c2ncccc12` [Compound 59, 2-amino-i-(7-aza-3-indolyl)methylimidazole] are 50.2 nM, 1230 µM and 21%.
Regarding `N=c1sccn1Cc1ccc([N+](=O)[O-])cc1` [Compound 62, 2-imino-3-(4-nitrobenzyl)-2,3-dihydrothiazole], the Ki in test [1] is 29.1 nM; in test [3], 79.8 µM. In test [2], the EC50 was determined as 325 µM.
